Patent US20240287124A1, “PRODRUGS OF 4'-SUBSTITUTED NUCLEOSIDE REVERSE TRANSCRIPTASE INHIBITORS” (Merck Sharp & Dohme LLC, priority 2023, published 2024)
In brackets after ≈: the same amount, converted by molar mass. Where two headings read alike, the source gives them in different places.

Columns and labels:
[1] = Aqueous solubility in PBS, pH 7.4; assay type: physicochemical; conditions: pH 7.4 phosphate buffered saline, 24 hours, amorphous or crystalline material; for solubility at 24 h: pH 7.4, aqueous buffer, thermodynamic from solid, read-out: Aqu. Solubility
Procedure, shortened: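 Excess solid suspended at 0.5 mg/mL in PBS pH 7.4 and stirred 24 hours. Filtrate (0.45 μm) diluted 1:1 with ACN:H2O and quantified by UPLC against a standard curve; residual solid phase checked by XRPD and PLM.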

[2] = test system: HIV-1 wild-type (R8) virus; test: Viral KINetics in Green cells (VIKING) assay, HIV-1 replication in MT4-GFP reporter cells; assay type: cell-based; conditions: MT4-GFP cells, HIV-1 wild-type (R8), read-out: Viking (10% NHS), IC50
Procedure, shortened: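 MT4-GFP cells infected overnight with HIV-1 R8 at MOI ~0.01, then added to compound plates in RPMI with 10% normal human serum; 10-point 3-fold dilutions (typically 4 μM-0.2 nM). Green cells counted at ~48 h and 72 h; reproductive ratio (72 h/48 h) gave % inhibition, IC50 by 4-parameter fit.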

[3] = Plasma stability in frozen human plasma; assay type: in vitro ADME; conditions: frozen human plasma at 37° C., 0-3 hr; read-out: T1/2 Human Plasma (converted)
Description: Plasma stability of the compounds was evaluated in frozen human plasma at 37° C. in a 10% CO2 environment. The stability of the analyte was assessed by determining the percentage of drug loss over the course of 0, 0.25, 0.5, 1, and 3 hr. In addition, the appearance of Compound A was determined for the same time course. Percent of drug loss as based on ratio with internal standard. Analyte concentrations were measured by LC/MS/MS. Linear regression was performed with log transformed percent of average TO values and linear time values. The elimination rate constant (ke) was calculated from the slope of this regression line and the half-life (T½) calculated based on the elimination rate constant.

[4] = Human immunodeficiency virus 1, 10% normal human serum

For `C#C[C@]1(COC(=O)C(C)C)O[C@@H](n2ccc3c(N)nc(Cl)nc32)C[C@@H]1OC(=O)C(C)C` [Example 42, (2R,3S,5R)-5-(4-amino-2-chloro-7H-pyrrolo[2,3-d]pyrimidin-7-yl)-2-ethynyl-2-((isobutyryloxy)methyl)tetrahydrofuran-3-yl isobutyrate], which solubility at 24 h ([1]; phosphate buffered saline) is on record?
The solubility at 24 h was less than 1 µg/mL.

And the IC50 [2, 4]?
Its IC50 is 10.9 nM.

What about the half-life [3] of the same compound?
The half-life was less than 0.25 h.

With `C#C[C@]1(COC(=O)CCCC)O[C@@H](n2ccc3c(N)nc(Cl)nc32)C[C@@H]1OC(=O)CCCC` [Example 7, (2R,3S,5R)-5-(4-amino-2-chloro-7H-pyrrolo[2,3-d]pyrimidin-7-yl)-2-ethynyl-2-((pentanoyloxy)methyl)tetrahydrofuran-3-yl pentanoate] as the compound, how does the solubility at 24 h ([1]; phosphate buffered saline) read?
Its solubility at 24 h is less than 1 µg/mL.

What about the IC50 [2, 4] of the same compound?
Its IC50 is 2.9 nM.

What about the half-life [3] of the same compound?
Its half-life is 0.036 h.

What does the source list for `C#C[C@]1(CO)O[C@@H](n2ccc3c(N)nc(Cl)nc32)C[C@@H]1OC(=O)C(CC)CC` [Example 45, (2R,3S,5R)-5-(4-amino-2-chloro-7H-pyrrolo[2,3-d]pyrimidin-7-yl)-2-ethynyl-2-(hydroxymethyl)tetrahydrofuran-3-yl 2-ethylbutanoate]?
solubility at 24 h ([1]; phosphate buffered saline): 45 µg/mL (≈ 111 µM); IC50 [2, 4]: 143 nM; half-life [3]: 19.4 h

With `C#C[C@]1(CO[P@@](=O)(N[C@@H](C)C(=O)OC(C)C)Oc2ccccc2)O[C@@H](n2ccc3c(N)nc(Cl)nc32)C[C@@H]1O` [Example 8, Isopropyl ((S)-(((2R,3S,5R)-5-(4-amino-2-chloro-7H-pyrrolo[2,3-d]pyrimidin-7-yl)-2-ethynyl-3-hydroxytetrahydrofuran-2-yl)methoxy)(phenoxy)phosphoryl)-L-alaninate] as the compound, how does the solubility at 24 h [1] read?
The solubility at 24 h was 304 µg/mL (≈ 526 µM).

What about the IC50 [2, 4] of the same compound?
The IC50 was 42 nM.

And the half-life [3]?
Its half-life is 13.3 h.

For `C#C[C@]1(COC(=O)C(CC)CC)O[C@@H](n2ccc3c(N)nc(Cl)nc32)C[C@@H]1OC(=O)C(CC)CC` [Example 44, (2R,3S,5R)-5-(4-amino-2-chloro-7H-pyrrolo[2,3-d]pyrimidin-7-yl)-2-(((2-ethylbutanoyl)oxy)methyl)-2-ethynyltetrahydrofuran-3-yl 2-ethylbutanoate], which solubility at 24 h ([1]; phosphate buffered saline) is on record?
The solubility at 24 h was less than 1 µg/mL.

And the IC50 [2, 4]?
Its IC50 is 351 nM.

What about the half-life [3] of the same compound?
The half-life was 2.2 h.

Which solubility at 24 h ([1]; phosphate buffered saline) does the source give for `C#C[C@]1(COC(=O)OCCCCC)O[C@@H](n2ccc3c(N)nc(Cl)nc32)C[C@@H]1O` [Example 14, ((2R,3S,5R)-5-(4-amino-2-chloro-7H-pyrrolo[2,3-d]pyrimidin-7-yl)-2-ethynyl-3-hydroxytetrahydrofuran-2-yl)methyl pentyl carbonate] here?
Its solubility at 24 h is 113 µg/mL (≈ 267 µM).

And the IC50 [2, 4]?
Its IC50 is 2.5 nM.

And the half-life [3]?
The half-life was less than 0.25 h.

Which solubility at 24 h ([1]; phosphate buffered saline) does the source give for `C#C[C@]1(COC(=O)c2ccccc2)O[C@@H](n2ccc3c(N)nc(Cl)nc32)C[C@@H]1OC(=O)c1ccccc1` [Example 6, (2R,3S,5R)-5-(4-amino-2-chloro-7H-pyrrolo[2,3-d]pyrimidin-7-yl)-2-((benzoyloxy)methyl)-2-ethynyltetrahydrofuran-3-yl benzoate] here?
Its solubility at 24 h is less than 1 µg/mL.

And the IC50 [2, 4]?
The IC50 was 44 nM.

And the half-life [3]?
The half-life was 1.1 h.

Which solubility at 24 h ([1]; phosphate buffered saline) does the source give for `C#C[C@]1(COC(=O)OC(C)C)O[C@@H](n2ccc3c(N)nc(Cl)nc32)C[C@@H]1O` [Example 23, ((2R,3S,5R)-5-(4-amino-2-chloro-7H-pyrrolo[2,3-d]pyrimidin-7-yl)-2-ethynyl-3-hydroxytetrahydrofuran-2-yl)methyl isopropyl carbonate] here?
Its solubility at 24 h is 351 µg/mL (≈ 889 µM).

What about the IC50 [2, 4] of the same compound?
The IC50 was 2.2 nM.

What about the half-life [3] of the same compound?
The half-life was 0.028 h.

What does the source list for `C#C[C@]1(COC(=O)C(C)C)O[C@@H](n2ccc3c(N)nc(Cl)nc32)C[C@@H]1O` [Example 11, ((2R,3S,5R)-5-(4-amino-2-chloro-7H-pyrrolo[2,3-d]pyrimidin-7-yl)-2-ethynyl-3-hydroxytetrahydrofuran-2-yl)methyl isobutyrate]?
solubility at 24 h ([1]; phosphate buffered saline): 285 µg/mL (≈ 752 µM); IC50 [2, 4]: 1.9 nM; half-life [3]: 0.042 h

For `C#C[C@]1(CO)O[C@@H](n2ccc3c(N)nc(Cl)nc32)C[C@@H]1OC(=O)c1ccccc1` [Example 5, (2R,3S,5R)-5-(4-amino-2-chloro-7H-pyrrolo[2,3-d]pyrimidin-7-yl)-2-ethynyl-2-(hydroxymethyl)tetrahydrofuran-3-yl benzoate], which solubility at 24 h ([1]; phosphate buffered saline) is on record?
The solubility at 24 h was less than 1 µg/mL.

And the IC50 [2, 4]?
Its IC50 is 35 nM.

What about the half-life [3] of the same compound?
Its half-life is 57.7 h.

Which solubility at 24 h ([1]; phosphate buffered saline) does the source give for `C#C[C@]1(CO)O[C@@H](n2ccc3c(N)nc(Cl)nc32)C[C@@H]1OC(=O)OC(C)C` [Example 1, (2R,3S,5R)-5-(4-amino-2-chloro-7H-pyrrolo[2,3-d]pyrimidin-7-yl)-2-ethynyl-2-(hydroxymethyl)tetrahydrofuran-3-yl isopropyl carbonate] here?
Its solubility at 24 h is 42 µg/mL (≈ 106 µM).

What about the IC50 [2, 4] of the same compound?
The IC50 was 74 nM.

And the half-life [3]?
The half-life was 19.1 h.

For `C#C[C@]1(COC(=O)CCCC)O[C@@H](n2ccc3c(N)nc(Cl)nc32)C[C@@H]1O` [Example 15, ((2R,3S,5R)-5-(4-amino-2-chloro-7H-pyrrolo[2,3-d]pyrimidin-7-yl)-2-ethynyl-3-hydroxytetrahydrofuran-2-yl)methyl pentanoate], which solubility at 24 h ([1]; phosphate buffered saline) is on record?
The solubility at 24 h was 55 µg/mL (≈ 140 µM).

What about the IC50 [2, 4] of the same compound?
Its IC50 is 2.3 nM.

What about the half-life [3] of the same compound?
The half-life was less than 0.25 h.

For `C#C[C@]1(COC(=O)c2ccccc2)O[C@@H](n2ccc3c(N)nc(Cl)nc32)C[C@@H]1O` [Example 9, ((2R,3S,5R)-5-(4-amino-2-chloro-7H-pyrrolo[2,3-d]pyrimidin-7-yl)-2-ethynyl-3-hydroxytetrahydrofuran-2-yl)methyl benzoate], which solubility at 24 h ([1]; phosphate buffered saline) is on record?
Its solubility at 24 h is 182 µg/mL (≈ 441 µM).

What about the IC50 [2, 4] of the same compound?
The IC50 was 2.8 nM.

What about the half-life [3] of the same compound?
Its half-life is 0.026 h.

What does the source list for `C#C[C@]1(COC(=O)Cc2ccc(Cl)cc2)O[C@@H](n2ccc3c(N)nc(Cl)nc32)C[C@@H]1O` [Example 33, ((2R,3S,5R)-5-(4-amino-2-chloro-7H-pyrrolo[2,3-d]pyrimidin-7-yl)-2-ethynyl-3-hydroxytetrahydrofuran-2-yl)methyl 2-(4-chlorophenyl)acetate]?
solubility at 24 h ([1]; phosphate buffered saline): 41 µg/mL (≈ 88.9 µM); IC50 [2, 4]: 2.4 nM

What does the source list for `C#C[C@]1(COCOC(=O)CCCCCCCCC)O[C@@H](n2ccc3c(N)nc(Cl)nc32)C[C@@H]1O` [Example 136]?
solubility at 24 h ([1]; phosphate buffered saline): < 1 µg/mL; IC50 [2, 4]: 3.2 nM

For `C#C[C@]1(COC(=O)OC(CC)CC)O[C@@H](n2ccc3c(N)nc(Cl)nc32)C[C@@H]1OC(=O)OC(CC)CC` [Example 142], which solubility at 24 h ([1]; phosphate buffered saline) is on record?
The solubility at 24 h was less than 1 µg/mL.

And the IC50 [2, 4]?
Its IC50 is 1760 nM.

With `C#C[C@]1(CO)O[C@@H](n2ccc3c(N)nc(Cl)nc32)C[C@@H]1OC(=O)OCCCc1ccccc1` [Example 152] as the compound, how does the solubility at 24 h ([1]; phosphate buffered saline) read?
Its solubility at 24 h is less than 1 µg/mL.

And the IC50 [2, 4]?
Its IC50 is 6 nM.

What does the source list for `C#C[C@]1(CO)O[C@@H](n2ccc3c(N)nc(Cl)nc32)C[C@@H]1OC(=O)CCCCCC` [Example 58, (2R,3S,5R)-5-(4-amino-2-chloro-7H-pyrrolo[2,3-d]pyrimidin-7-yl)-2-ethynyl-2-(hydroxymethyl)tetrahydrofuran-3-yl heptanoate]?
solubility at 24 h ([1]; phosphate buffered saline): < 1 µg/mL; IC50 [2, 4]: 1.9 nM

What does the source list for `C#C[C@]1(COC(=O)CCCCCCCCC)O[C@@H](n2ccc3c(N)nc(Cl)nc32)C[C@@H]1O` [Example 20, ((2R,3S,5R)-5-(4-amino-2-chloro-7H-pyrrolo[2,3-d]pyrimidin-7-yl)-2-ethynyl-3-hydroxytetrahydrofuran-2-yl)methyl decanoate]?
solubility at 24 h ([1]; phosphate buffered saline): < 1 µg/mL; IC50 [2, 4]: 2.8 nM

What does the source list for `C#C[C@]1(COC(=O)OCCC23CC4CC(CC(C4)C2)C3)O[C@@H](n2ccc3c(N)nc(Cl)nc32)C[C@@H]1O` [Example 35, 2-(adamantan-1-yl)ethyl (((2R,3S,5R)-5-(4-amino-2-chloro-7H-pyrrolo[2,3-d]pyrimidin-7-yl)-2-ethynyl-3-hydroxytetrahydrofuran-2-yl)methyl) carbonate]?
solubility at 24 h ([1]; phosphate buffered saline): < 1 µg/mL; IC50 [2, 4]: 6.2 nM

With `C#C[C@]1(CO)O[C@@H](n2ccc3c(N)nc(Cl)nc32)C[C@@H]1OC(=O)c1ccccn1` [Example 28, (2R,3S,5R)-5-(4-amino-2-chloro-7H-pyrrolo[2,3-d]pyrimidin-7-yl)-2-ethynyl-2-(hydroxymethyl)tetrahydrofuran-3-yl picolinate] as the compound, how does the solubility at 24 h ([1]; phosphate buffered saline) read?
Its solubility at 24 h is 68 µg/mL (≈ 164 µM).

What about the IC50 [2, 4] of the same compound?
Its IC50 is 4.3 nM.

Which solubility at 24 h ([1]; phosphate buffered saline) does the source give for `C#C[C@]1(CO)O[C@@H](n2ccc3c(N)nc(Cl)nc32)C[C@@H]1OC(=O)CCCCCCCC` [Example 55, (2R,3S,5R)-5-(4-amino-2-chloro-7H-pyrrolo[2,3-d]pyrimidin-7-yl)-2-ethynyl-2-(hydroxymethyl)tetrahydrofuran-3-yl nonanoate] here?
Its solubility at 24 h is less than 1 µg/mL.

What about the IC50 [2, 4] of the same compound?
The IC50 was 2.2 nM.

Which results are given for `C#C[C@]1(COP(=O)(N[C@@H](C)C(=O)OC(C)C)Oc2ccc3ccccc3c2)O[C@@H](n2ccc3c(N)nc(Cl)nc32)C[C@@H]1O` (stereo partly drawn) [Example 76]?
Aqu. Solubility [1]: 23 µg/mL; IC50 ([2]; 10% normal human serum): 31 nM

What does the source list for `C#C[C@]1(CO)O[C@@H](n2ccc3c(NC(=O)CCCCCCCCC)nc(Cl)nc32)C[C@@H]1O` [Example 197]?
solubility at 24 h ([1]; phosphate buffered saline): < 1 µg/mL; IC50 [2, 4]: 29 nM

What does the source list for `C#C[C@]1(COCOC(=O)OCCCCCCCCCCCC)O[C@@H](n2ccc3c(N)nc(Cl)nc32)C[C@@H]1O` [Example 134]?
solubility at 24 h ([1]; phosphate buffered saline): < 1 µg/mL; IC50 [2, 4]: 3.7 nM
